Common to all, as to format: binding
One assay addresses T1, aprataxin FHA domain (Homo sapiens, UniProt Q7Z2E3).
T1 construct: aprataxin residues 1–105; GST (pGEX-6P-1) (N, cleaved yes); made in house; host or cells: Escherichia coli BL21 (DE3)
Nature of the assay: NMR (1H-SOFAST-HMQC) titrations of aprataxin FHA domain with XRCC1 phosphopeptides. The conditions noted are these: NMR titration, 22 °C. The method, then: NMR experiments were carried out at 22 °C on Bruker Avance II+ 600 MHz and Avance III 700 MHz spectrometers, each equipped with a cryogenic triple-resonance probe. Protein and peptides were prepared in NMR buffer (20 mM Na Acetate pH 5.8, 50 mM NaCl, 2 mM DTT). Three-dimensional HNCA, HNCO, HNCACB and CBCA(CO)NH experiments were performed to obtain backbone assignments. NMR titration experiments were carried out by adding the unlabelled XRCC1 peptides to ^15N-labeled aprataxin FHA domain. The initial protein concentration was 92 μM and volumes of 2 mM stock solution of peptide were added until the protein:peptide ratio was 1:4. ^1H-SOFAST-HMQC [36] spectra were measured after each titration step. All spectra were processed using nmrPipe, and analysed using CARA/NEASY [38]. The weighted chemical shift change (in ppm units) of each amide proton (ΔδHN) and nitrogen (ΔδN) was calculated according to the equation: Δδtotal = [(ΔδHNWHN)^2 + (ΔδNWN)^2]^1/2 with WHN = 1 and WN = 0.154 [39]. Weighted chemical shifts for residues D37, V45, Q46, V61 and V63 were plotted against peptide concentration to determine individual Kds and averaged to determine the apparent Kd.

In assay [1] the target is T2, wild-type aprataxin FHA domain (Homo sapiens, UniProt Q7Z2E3).
T2 construct: aprataxin residues 1–105; GST (pGEX-6P-1) (N, cleaved yes); made in house; host or cells: Escherichia coli BL21 (DE3)
Nature of the assay: ITC of wild-type aprataxin FHA domain with XRCC1 and XRCC4 phosphopeptides. The conditions noted are these: 22 °C, 50 mM HEPES pH 7.5, 150 mM NaCl, 5 mM β-mercaptoethanol, peptide in syringe, XRCC1 peptides 1 mM into 100 μM protein, XRCC4 peptides 300 μM into 30 μM protein, single-site model, representative of triplicate. The text has this: (§1) The genes for aprataxin residues 1–105 and APLF residues 1–106 were amplified using primer sets which incorporated 5′ BamHI and 3′ XhoI sites. PCR products and pGEX-6P-1 vector were digested with BamHI and XhoI and religated. All point mutations were generated using a QuickChange Site-Directed Mutagenesis Kit (Stratagene) following the manufacturer's recommended protocol.
(§2) For expression, the pGEX-6P-1/aprataxin-FHA constructs were transformed into Escherichia coli strain BL21 (DE3) and the pGEX-6P-1/APLF-FHA constructs transformed into the strain Rosetta2 (DE3). Cells were grown in LB at 37 °C to an A600 of 0.5, induced with 0.4 mM isopropyl 1-thio-β-D-galactopyranoside and incubated at 18 °C for a further 16 h before harvesting. Cells were lysed by sonication and clarified by centrifugation (20,000 × g × 30 min). The supernatant was applied to a glutathione-4B resin (Amersham) and cleaved from the resin with rhinovirus 3C protease. Proteins were purified further by gel-filtration chromatography on a Superdex 75 matrix in 20 mM Tris pH 7.5, 150 mM NaCl, 5 mM DTT. Selenomethionine-labelled APLF L91 M protein was expressed in Rosetta2 (DE3) cells cultured in SelenoMet base media and nutrients supplemented with seleno-methionine solution (Molecular Dimensions Ltd.) and purified as the wild-type protein.
(§3) Phosphopeptides based on the XRCC1 sequence 515-YAGSTDENTDSEEHQ-529 and the XRCC4 sequence 229-YDESTDEES-237 were synthesised with amidated C-termini to avoid potential end-effects of a free carboxy-terminus by Dr. W. Mawby (University of Bristol), purified by HPLC and characterised by mass spectrometry. FHA-phosphopeptide binding was quantified by isothermal titration calorimetry using a Microcal Omega VP-ITC calorimeter (MicroCal Inc., Northampton, MA). Protein was dialysed against ITC buffer (50 mM HEPES pH 7.5, 150 mM NaCl, 5 mM β-mercaptoethanol) and peptides were dissolved in the dialysis buffer. Experiments were carried out at 22 °C and involved 30 successive 10 μl injections of peptide solution into a sample cell containing protein solution. Titrations with XRCC1 peptides used peptide at 1 mM and protein at 100 μM and titrations with XRCC4 peptides used peptide at 300 μm and protein at 30 μM. Heats of dilution were subtracted and binding isotherms were plotted and analysed with MicroCal origin version 7.0, assuming a single-site binding model.

In assay [2] the target is T3, R42A Mutant of aprataxin FHA domain (Homo sapiens, UniProt Q7Z2E3, R56A).
T3 construct: aprataxin residues 1–105; GST (pGEX-6P-1) (N, cleaved yes); made in house; host or cells: Escherichia coli BL21 (DE3)
Nature of the assay: ITC of R42A mutant of aprataxin FHA domain with XRCC1 and XRCC4 phosphopeptides. Conditions: 22 °C, 50 mM HEPES pH 7.5, 150 mM NaCl, 5 mM β-mercaptoethanol, single-site model.
Text: as §1, §2, §3

Assay [3] deals with T4, K38A Mutant of aprataxin FHA domain (Homo sapiens, UniProt Q7Z2E3, K52A).
T4 construct: aprataxin residues 1–105; GST (pGEX-6P-1) (N, cleaved yes); made in house; host or cells: Escherichia coli BL21 (DE3)
The assay can be described thus: ITC of K38A mutant of aprataxin FHA domain with XRCC1 and XRCC4 phosphopeptides. Conditions: 22 °C, 50 mM HEPES pH 7.5, 150 mM NaCl, 5 mM β-mercaptoethanol, single-site model.
Text: as §1, §2, §3

Where [4] appears, read: 20 mM Na Acetate pH 5.8, 50 mM NaCl, 2 mM DTT, 92 µM 15N aprataxin FHA, 2 mM peptide stock, read-out: Kd from weighted chemical shift of residue Asp37.
[5] abbreviates: pH 5.8, 92 µM aprataxin FHA, read-out: Kd from weighted chemical shift of residue Gln46.
Setting [6] is: pH 5.8, 92 µM aprataxin FHA, read-out: Kd from weighted chemical shift of residue Val45.
[7] abbreviates: pH 5.8, 92 µM aprataxin FHA, read-out: Kd from weighted chemical shift of residue Val61.
Setting [8] is: pH 5.8, 92 µM aprataxin FHA, read-out: Kd from weighted chemical shift of residue Val63.

Read-outs that look alike come from different tables or passages of the source. Square brackets hold non-standard residues; d marks the D form. Peptide text beside a SMILES is read from it. pT = C[C@@H](OP(=O)(O)O)[C@H](N)C(=O)O; pS = N[C@@H](COP(=O)(O)O)C(=O)O

T4 sequence (Q7Z2E3 15-119 K52A): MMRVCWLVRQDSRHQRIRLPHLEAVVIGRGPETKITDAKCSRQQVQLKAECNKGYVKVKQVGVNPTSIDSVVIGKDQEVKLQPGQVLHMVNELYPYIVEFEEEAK
T3 sequence (Q7Z2E3 15-119 R56A): as the sequence (Q7Z2E3 15-119 K52A) above, with A38K, R42A counted along it
T1 sequence (Q7Z2E3 15-119): as the sequence (Q7Z2E3 15-119 K52A) above, with A38K counted along it
T2 sequence (Q7Z2E3 15-119): as the sequence (Q7Z2E3 15-119 K52A) above, with A38K counted along it

For the molecule `C[C@H](NC(=O)[C@@H](N)Cc1ccc(O)cc1)C(=O)NCC(=O)N[C@@H](CO)C(=O)N[C@H](C(=O)N[C@@H](CC(=O)O)C(=O)N[C@@H](CCC(=O)O)C(=O)N[C@@H](CC(N)=O)C(=O)N[C@H](C(=O)N[C@@H](CC(=O)O)C(=O)N[C@@H](CO)C(=O)N[C@@H](CCC(=O)O)C(=O)N[C@@H](CCC(=O)O)C(=O)N[C@@H](Cc1c[nH]cn1)C(=O)N[C@@H](CCC(N)=O)C(N)=O)[C@@H](C)OP(=O)(O)O)[C@@H](C)O` [YAGSTDENpTDSEEHQ] (HELM PEPTIDE1{Y.A.G.S.T.D.E.N.[C[C@@H](OP(=O)(O)O)[C@H](N[*:1])C(=O)[*:2]].D.S.E.E.H.Q.[am]}$$$$V2.0), the Kd on aprataxin FHA domain (setting [4]) was 7.6 µM; at aprataxin FHA domain (setting [5]) it was 5.9 µM; at aprataxin FHA domain (setting [6]) it was 9.8 µM; at aprataxin FHA domain (setting [7]), 4 µM; at aprataxin FHA domain (setting [8]), 7.9 µM; at aprataxin FHA domain (pH 5.8, tighter binders not well defined due to high protein concentration, read-out: overall apparent affinity (Kdapp) estimated from NMR titrations), 7 µM. In assay [1], this molecule returned a Kd of 42 ± 3.8 µM.
Consider `C[C@@H](OP(=O)(O)O)[C@H](NC(=O)[C@H](COP(=O)(O)O)NC(=O)[C@H](CCC(=O)O)NC(=O)[C@H](CC(=O)O)NC(=O)[C@@H](N)Cc1ccc(O)cc1)C(=O)N[C@@H](CC(=O)O)C(=O)N[C@@H](CCC(=O)O)C(=O)N[C@@H](CCC(=O)O)C(=O)N[C@@H](COP(=O)(O)O)C(N)=O` [YDEpSpTDEEpS] (H-YDE[pS][pT]DEE[pS]-NH2), for which the Kd in assay [2] is no less than 100 µM; in assay [1], 0.14 ± 0.01 µM; in assay [3], 1.3 ± 0.05 µM.
In the case of `C[C@H](NC(=O)[C@@H](N)Cc1ccc(O)cc1)C(=O)NCC(=O)N[C@@H](COP(=O)(O)O)C(=O)N[C@H](C(=O)N[C@@H](CC(=O)O)C(=O)N[C@@H](CCC(=O)O)C(=O)N[C@@H](CC(N)=O)C(=O)N[C@H](C(=O)N[C@@H](CC(=O)O)C(=O)N[C@@H](CO)C(=O)N[C@@H](CCC(=O)O)C(=O)N[C@@H](CCC(=O)O)C(=O)N[C@@H](Cc1c[nH]cn1)C(=O)N[C@@H](CCC(N)=O)C(N)=O)[C@@H](C)O)[C@@H](C)OP(=O)(O)O` [YAGpSpTDENTDSEEHQ] (HELM PEPTIDE1{Y.A.G.[O=C([C@H](COP(=O)(O)O)N[*:1])[*:2]].[C[C@@H](OP(=O)(O)O)[C@H](N[*:1])C(=O)[*:2]].D.E.N.T.D.S.E.E.H.Q.[am]}$$$$V2.0), the Kd on aprataxin FHA domain (setting [4]) stood at 2 µM; on aprataxin FHA domain (setting [5]), 1.7 µM; on aprataxin FHA domain (setting [6]), 2.5 µM; on aprataxin FHA domain (setting [7]), 1.6 µM; on aprataxin FHA domain (setting [8]), 2.1 µM; in assay [2] it was 53.2 ± 5.8 µM. Moreover, the Kd in assay [1] was found to be 1.5 ± 0.06 µM; in assay [3], 12.8 ± 0.7 µM.
For `C[C@@H](OP(=O)(O)O)[C@H](NC(=O)[C@H](CO)NC(=O)[C@H](CCC(=O)O)NC(=O)[C@H](CC(=O)O)NC(=O)[C@@H](N)Cc1ccc(O)cc1)C(=O)N[C@@H](CC(=O)O)C(=O)N[C@@H](CCC(=O)O)C(=O)N[C@@H](CCC(=O)O)C(=O)N[C@@H](CO)C(N)=O` [YDESpTDEES] (HELM PEPTIDE1{Y.D.E.S.[C[C@@H](OP(=O)(O)O)[C@H](N[*:1])C(=O)[*:2]].D.E.E.S.[am]}$$$$V2.0), the Kd in assay [2] was no less than 100 µM; in assay [1], 2.1 ± 0.08 µM; in assay [3], 6.8 ± 0.5 µM.
